Source: ChEMBL document CHEMBL1131819, “Human chymase inhibitors based on the 1,2,5-thiadiazolidin-3-one 1,1 dioxide scaffold” (Bioorg Med Chem Lett, 1999)
Calls of active or inactive are those of the source. No cut-off for these calls is given here.

What was measured:
Chymase (Homo sapiens) = target: T1, Chymase (Homo sapiens) (UniProt P23946); assay: Second order rate constant for the inhibition of human skin chymase.
T1 sequence (whole entry): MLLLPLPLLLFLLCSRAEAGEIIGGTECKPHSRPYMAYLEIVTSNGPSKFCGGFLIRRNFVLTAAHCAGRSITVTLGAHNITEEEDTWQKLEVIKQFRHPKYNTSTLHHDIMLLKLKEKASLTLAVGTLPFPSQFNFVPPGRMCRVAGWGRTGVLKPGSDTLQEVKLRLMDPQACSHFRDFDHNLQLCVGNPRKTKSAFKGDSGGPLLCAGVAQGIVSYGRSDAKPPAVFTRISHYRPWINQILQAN

[1] = target: T2, Cathepsin G (Homo sapiens) (UniProt P08311); assay: Second order rate constant for the inhibition of leukocyte Cathepsin G (Cat G).
T2 sequence (whole entry): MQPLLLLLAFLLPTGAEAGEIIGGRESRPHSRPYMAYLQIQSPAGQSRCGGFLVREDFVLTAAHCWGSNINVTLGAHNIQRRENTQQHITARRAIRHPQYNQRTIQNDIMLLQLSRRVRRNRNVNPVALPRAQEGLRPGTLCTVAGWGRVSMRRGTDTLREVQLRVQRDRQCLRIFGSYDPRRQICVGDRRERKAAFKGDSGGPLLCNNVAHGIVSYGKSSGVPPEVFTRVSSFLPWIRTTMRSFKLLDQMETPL

Row | Structure (SMILES) | K inact/Ki (Chymase (Homo sapiens)) | K inact/Ki [1]
1 | CC(O)C(=O)OCN1C(=O)C(Cc2ccccc2)N(Cc2ccccc2)S1(=O)=O (configuration not stated) | 38500 M⁻¹ s⁻¹ | 12700 M⁻¹ s⁻¹
2 | O=C(OCN1C(=O)C(Cc2ccccc2)N(Cc2ccccc2)S1(=O)=O)C(O)c1ccccc1 (configuration not stated) | 39900 M⁻¹ s⁻¹ | 12300 M⁻¹ s⁻¹
3 | O=C1C(Cc2ccccc2)N(Cc2ccccc2)S(=O)(=O)N1CSc1nnc(-c2ccccc2)o1 (configuration not stated) | 5090 M⁻¹ s⁻¹ | 490 M⁻¹ s⁻¹
4 | O=C(O)c1ccccc1S(=O)(=O)CN1C(=O)C(Cc2ccccc2)N(Cc2ccccc2)S1(=O)=O (configuration not stated) | inactive | 350 M⁻¹ s⁻¹
5 | O=C(O)CCS(=O)(=O)CN1C(=O)C(Cc2ccccc2)N(Cc2ccccc2)S1(=O)=O (configuration not stated) | 23400 M⁻¹ s⁻¹ | 17400 M⁻¹ s⁻¹
6 | Nc1ccc2nc(SCN3C(=O)C(Cc4ccccc4)N(Cc4ccccc4)S3(=O)=O)sc2c1 (configuration not stated) | 14700 M⁻¹ s⁻¹ | 15700 M⁻¹ s⁻¹
7 | O=C1C(Cc2ccccc2)N(Cc2ccccc2)S(=O)(=O)N1CSc1nc2ccccc2o1 (configuration not stated) | 5430 M⁻¹ s⁻¹ | 17100 M⁻¹ s⁻¹
8 | O=C(O)c1cccc(S(=O)(=O)CN2C(=O)C(Cc3ccccc3)N(Cc3ccccc3)S2(=O)=O)c1 (configuration not stated) | 13500 M⁻¹ s⁻¹ | 20700 M⁻¹ s⁻¹

Results, then the molecule that gave them:

Row | K inact/Ki (Chymase (Homo sapiens)) | K inact/Ki [1] | Structure (SMILES)
9 | 186000 M⁻¹ s⁻¹ | 66700 M⁻¹ s⁻¹ | O=C(O)c1ccc(S(=O)(=O)CN2C(=O)C(Cc3ccccc3)N(Cc3ccccc3)S2(=O)=O)cc1 (configuration not stated)
10 | 45700 M⁻¹ s⁻¹ | 22700 M⁻¹ s⁻¹ | O=C(O)CC(=O)OCN1C(=O)C(Cc2ccccc2)N(Cc2ccccc2)S1(=O)=O (configuration not stated)
11 | 10800 M⁻¹ s⁻¹ | 25200 M⁻¹ s⁻¹ | O=C(O)CS(=O)(=O)CN1C(=O)C(Cc2ccccc2)N(Cc2ccccc2)S1(=O)=O (configuration not stated)
12 | 6250 M⁻¹ s⁻¹ | 430 M⁻¹ s⁻¹ | CN1C(Cc2ccccc2)C(=O)N(CSc2nc3ccccc3o2)S1(=O)=O (configuration not stated)
13 | 12500 M⁻¹ s⁻¹ | 11200 M⁻¹ s⁻¹ | O=C1C(Cc2ccccc2)N(Cc2ccccc2)S(=O)(=O)N1CS(=O)(=O)c1ccccc1 (configuration not stated)
14 | 21800 M⁻¹ s⁻¹ | 10600 M⁻¹ s⁻¹ | CC(=O)OCN1C(=O)C(Cc2ccccc2)N(Cc2ccccc2)S1(=O)=O (configuration not stated)
15 | 4600 M⁻¹ s⁻¹ | 8500 M⁻¹ s⁻¹ | CS(=O)(=O)CN1C(=O)C(Cc2ccccc2)N(Cc2ccccc2)S1(=O)=O (configuration not stated)
16 | 30500 M⁻¹ s⁻¹ | 12800 M⁻¹ s⁻¹ | O=C(CO)OCN1C(=O)C(Cc2ccccc2)N(Cc2ccccc2)S1(=O)=O (configuration not stated)
